Results reported in PubChem BioAssay (NCI).
Several values for one entry are separate records, joined by “and”; a condition that tells them apart may be missing. Equal entries are not always repeated.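 Values below derive from 48-hour exposures of cells grown in 96-well plates, with endpoints linearly interpolated between the two concentrations bracketing the appropriate inhibition level. GI50 is the concentration that inhibits growth by half. Definition used: TGI = concentration required for complete inhibition of growth.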

Columns and labels:
Assay in all cases: inhibition of tumour cell growth, NCI panel, 48 h; in the data active = GI50 below about 0.43 µM; inactive = the rest
SNB-19 CNS = test system: SNB-19 CNS
HOP-92 NSCLC = test system: HOP-92 NSCLC
IGROV1 ovarian = test system: IGROV1 ovarian
SF-539 CNS = test system: SF-539 CNS
ACHN renal = test system: ACHN renal
HOP-18 NSCLC = test system: HOP-18 NSCLC
RPMI-8226 leukemia = test system: RPMI-8226 leukemia
M14 melanoma = test system: M14 melanoma
HL-60(TB) leukemia = test system: HL-60(TB) leukemia
NCI-H23 lung = test system: NCI-H23 lung
SK-MEL-28 melanoma = test system: SK-MEL-28 melanoma
LXFL 529 NSCLC = test system: LXFL 529 NSCLC
KM20L2 colon = test system: KM20L2 colon
M19-MEL melanoma = test system: M19-MEL melanoma
DMS 114 small cell lung = test system: DMS 114 small cell lung
CCRF-CEM leukemia = test system: CCRF-CEM leukemia
K-562 leukemia = test system: K-562 leukemia
COLO 205 colon = test system: COLO 205 colon
HCT-15 colon = test system: HCT-15 colon
XF 498 CNS = test system: XF 498 CNS
OVCAR-4 ovarian = test system: OVCAR-4 ovarian
NCI-H460 lung = test system: NCI-H460 lung
SN12C renal = test system: SN12C renal
RXF 393 renal = test system: RXF 393 renal
SNB-78 CNS = test system: SNB-78 CNS
A498 renal = test system: A498 renal
RXF-631 renal = test system: RXF-631 renal
U251 CNS = test system: U251 CNS
UACC-62 melanoma = test system: UACC-62 melanoma
LOX IMVI melanoma = test system: LOX IMVI melanoma
DMS 273 small cell lung = test system: DMS 273 small cell lung
MOLT-4 leukemia = test system: MOLT-4 leukemia
SK-OV-3 ovarian = test system: SK-OV-3 ovarian
UACC-257 melanoma = test system: UACC-257 melanoma
SF-295 CNS = test system: SF-295 CNS
TK-10 renal = test system: TK-10 renal
HT29 colon = test system: HT29 colon
A549 NSCLC = test system: A549 NSCLC
UO-31 renal = test system: UO-31 renal
SNB-75 CNS = test system: SNB-75 CNS
786-0 renal = test system: 786-0 renal
SK-MEL-5 melanoma = test system: SK-MEL-5 melanoma
KM12 colon = test system: KM12 colon
OVCAR-3 ovarian = test system: OVCAR-3 ovarian
HCC-2998 colon = test system: HCC-2998 colon
MALME-3M melanoma = test system: MALME-3M melanoma
SF-268 CNS = test system: SF-268 CNS
SR leukemia = test system: SR leukemia
OVCAR-8 ovarian = test system: OVCAR-8 ovarian
OVCAR-5 ovarian = test system: OVCAR-5 ovarian
NCI-H226 lung = test system: NCI-H226 lung
DLD-1 colon = test system: DLD-1 colon
HCT-116 colon = test system: HCT-116 colon
HOP-62 NSCLC = test system: HOP-62 NSCLC
SK-MEL-2 melanoma = test system: SK-MEL-2 melanoma
EKVX NSCLC = test system: EKVX NSCLC
NCI-H522 lung = test system: NCI-H522 lung
MCF7 breast = test system: MCF7 breast
CAKI-1 renal = test system: CAKI-1 renal
HS 578T breast = test system: HS 578T breast
DU-145 prostate = test system: DU-145 prostate
MDA-N = test system: MDA-N
PC-3 prostate = test system: PC-3 prostate
NCI/ADR-RES ovarian = test system: NCI/ADR-RES ovarian
SW-620 colon = test system: SW-620 colon
MDA-MB-435 = test system: MDA-MB-435
T-47D breast = test system: T-47D breast
BT-549 breast = test system: BT-549 breast
MDA-MB-231 breast = test system: MDA-MB-231 breast

O=C(O)CCC1CCc2cccc(O)c2C1=O (configuration not stated)
> 100 µM: TGI (SNB-19 CNS) | TGI (HOP-92 NSCLC) | TGI (IGROV1 ovarian) | TGI (SF-539 CNS) | TGI (ACHN renal) | TGI (HOP-18 NSCLC) | TGI (RPMI-8226 leukemia) | TGI (M14 melanoma) | TGI (HL-60(TB) leukemia) | TGI (NCI-H23 lung) | TGI (SK-MEL-28 melanoma) | TGI (LXFL 529 NSCLC) | TGI (KM20L2 colon) | TGI (M19-MEL melanoma) | TGI (DMS 114 small cell lung) | TGI (CCRF-CEM leukemia) | TGI (K-562 leukemia) | TGI (COLO 205 colon) | TGI (HCT-15 colon) | TGI (XF 498 CNS) | TGI (OVCAR-4 ovarian) | TGI (NCI-H460 lung) | TGI (SN12C renal) | TGI (RXF 393 renal) | TGI (SNB-78 CNS) | TGI (A498 renal) | TGI (RXF-631 renal) | TGI (U251 CNS) | TGI (UACC-62 melanoma) | TGI (LOX IMVI melanoma) | TGI (DMS 273 small cell lung) | TGI (MOLT-4 leukemia) | TGI (SK-OV-3 ovarian)

CC(=O)Oc1c(C)c(-c2ccccc2)c(C)c(-c2ccccc2)c1C(=S)c1ccccc1
> 100 µM: TGI (SNB-19 CNS) | TGI (HOP-92 NSCLC) | TGI (IGROV1 ovarian) | TGI (SF-539 CNS) | TGI (ACHN renal) | TGI (UACC-257 melanoma) | TGI (SF-295 CNS) | TGI (HOP-18 NSCLC) | TGI (TK-10 renal) | TGI (HT29 colon) | TGI (A549 NSCLC) | TGI (UO-31 renal) | TGI (SNB-75 CNS) | TGI (786-0 renal) | TGI (RPMI-8226 leukemia) | TGI (M14 melanoma) | TGI (HL-60(TB) leukemia) | TGI (NCI-H23 lung) | TGI (SK-MEL-28 melanoma) | TGI (LXFL 529 NSCLC) | TGI (KM20L2 colon) | TGI (M19-MEL melanoma) | TGI (SK-MEL-5 melanoma) | TGI (KM12 colon) | TGI (OVCAR-3 ovarian) | TGI (CCRF-CEM leukemia) | TGI (K-562 leukemia) | TGI (COLO 205 colon) | TGI (HCC-2998 colon) | TGI (HCT-15 colon) | TGI (MALME-3M melanoma) | TGI (NCI-H460 lung) | TGI (SN12C renal) | TGI (SF-268 CNS) | TGI (SR leukemia) | TGI (OVCAR-8 ovarian) | TGI (RXF 393 renal) | TGI (OVCAR-5 ovarian) | TGI (SNB-78 CNS) | TGI (NCI-H226 lung) | TGI (A498 renal) | TGI (RXF-631 renal) | TGI (U251 CNS) | TGI (UACC-62 melanoma) | TGI (LOX IMVI melanoma) | TGI (DLD-1 colon) | TGI (MOLT-4 leukemia) | TGI (HCT-116 colon) | TGI (HOP-62 NSCLC) | TGI (SK-MEL-2 melanoma) | TGI (EKVX NSCLC) | TGI (NCI-H522 lung) | TGI (SK-OV-3 ovarian)

Cc1ccc(C)c(NC(=O)CC2Sc3ccccc3NC2=O)c1 (configuration not stated)
33.4 µM and > 88.1 µM: TGI (SN12C renal)
16.9 µM and 42.5 µM: TGI (HOP-92 NSCLC)
30.7 µM and 58.6 µM: TGI (786-0 renal)
27 µM and 45.3 µM: TGI (OVCAR-8 ovarian)
43.2 µM and > 100 µM: TGI (SK-MEL-5 melanoma)
41.2 µM and 68.8 µM: TGI (SF-539 CNS)
25.2 µM and > 94.5 µM: TGI (HCT-116 colon)
38.3 µM and 48.3 µM: TGI (SK-OV-3 ovarian)
54.7 µM and > 100 µM: TGI (SK-MEL-28 melanoma)
60.6 µM and > 93.8 µM: TGI (NCI-H522 lung)
24 µM and 57.7 µM: TGI (OVCAR-4 ovarian)
23 µM and 55.7 µM: TGI (UO-31 renal)
> 75.2 µM: TGI (HS 578T breast)
> 97.1 µM: TGI (UACC-257 melanoma)
23.7 µM and 60.9 µM: TGI (A498 renal)
> 74.3 µM: TGI (NCI/ADR-RES ovarian)
28.6 µM and 67.2 µM: TGI (NCI-H226 lung)
36.6 µM and > 76.3 µM: TGI (IGROV1 ovarian)
33.1 µM and 99.1 µM: TGI (CAKI-1 renal)
> 100 µM: TGI (MCF7 breast) | TGI (SF-295 CNS) | TGI (HT29 colon) | TGI (A549 NSCLC) | TGI (DU-145 prostate) | TGI (RPMI-8226 leukemia) | TGI (M14 melanoma) | TGI (HL-60(TB) leukemia) | TGI (LXFL 529 NSCLC) | TGI (KM20L2 colon) | TGI (M19-MEL melanoma) | TGI (DMS 114 small cell lung) | TGI (KM12 colon) | TGI (CCRF-CEM leukemia) | TGI (K-562 leukemia) | TGI (COLO 205 colon) | TGI (MDA-N) | TGI (HCT-15 colon) | TGI (PC-3 prostate) | TGI (NCI-H460 lung) | TGI (SR leukemia) | TGI (SW-620 colon) | TGI (OVCAR-5 ovarian) | TGI (UACC-62 melanoma) | TGI (LOX IMVI melanoma) | TGI (DMS 273 small cell lung) | TGI (DLD-1 colon) | TGI (MOLT-4 leukemia) | TGI (SK-MEL-2 melanoma) | TGI (EKVX NSCLC)
12.8 µM and 28.4 µM: TGI (RXF 393 renal)
23.7 µM and 58.4 µM: TGI (OVCAR-3 ovarian)
82.4 µM and > 95.8 µM: TGI (BT-549 breast)
34.1 µM and 48.1 µM: TGI (HOP-62 NSCLC)
26.1 µM and 74.2 µM: TGI (SF-268 CNS)
36 µM and 70 µM: TGI (HOP-18 NSCLC)
22.7 µM and > 100 µM: TGI (XF 498 CNS)
28.9 µM and 61.1 µM: TGI (SNB-78 CNS)
85 µM and > 100 µM: TGI (MDA-MB-435)
42.1 µM and 63.8 µM: TGI (SNB-19 CNS)
34.8 µM and > 100 µM: TGI (HCC-2998 colon)
25.4 µM and 52.2 µM: TGI (U251 CNS)
83.9 µM and > 100 µM: TGI (T-47D breast)
inactive: GI50 (ACHN renal) 38.3 µM | GI50 (TK-10 renal) 18.3 µM and 41.9 µM | GI50 (HT29 colon) 31.4 µM and > 100 µM | GI50 (A549 NSCLC) 24.9 µM and 70.8 µM | GI50 (UO-31 renal) 14.5 µM and 30 µM | GI50 (CAKI-1 renal) 18.9 µM and 45.2 µM | GI50 (NCI-H23 lung) 17.8 µM and 47.3 µM | GI50 (SK-MEL-28 melanoma) 34.9 µM and > 100 µM | GI50 (LXFL 529 NSCLC) 23 µM and 99 µM | GI50 (M19-MEL melanoma) 37 µM and > 100 µM | GI50 (SK-MEL-5 melanoma) 30.3 µM and 91.6 µM | GI50 (KM12 colon) 22.7 µM and > 100 µM | GI50 (OVCAR-3 ovarian) 14.6 µM and 30.3 µM | GI50 (MDA-N) 22.1 µM and > 65.6 µM | GI50 (HCC-2998 colon) 19 µM and 61.9 µM | GI50 (XF 498 CNS) 13.7 µM and 29.1 µM | GI50 (MALME-3M melanoma) 27.8 µM and 64.8 µM | GI50 (OVCAR-4 ovarian) 14.8 µM and 31.3 µM | GI50 (NCI-H460 lung) 33.6 µM and > 74.1 µM | GI50 (SN12C renal) 19.5 µM and 44.7 µM | GI50 (RXF 393 renal) 6.39 µM and 14 µM | GI50 (SW-620 colon) 26.2 µM and > 77.1 µM | GI50 (OVCAR-5 ovarian) 46.5 µM and > 100 µM | GI50 (NCI-H226 lung) 15.9 µM and 37.2 µM | GI50 (A498 renal) 15.1 µM and 34 µM | GI50 (T-47D breast) 17.4 µM and > 63.1 µM | GI50 (BT-549 breast) 19.2 µM and 39 µM | GI50 (LOX IMVI melanoma) 34.5 µM and > 81.5 µM | GI50 (DMS 273 small cell lung) 23.1 µM and 97 µM | GI50 (DLD-1 colon) > 93.6 µM | GI50 (HCT-116 colon) 15.9 µM and 36.9 µM | GI50 (NCI-H522 lung) 21.7 µM and 45.6 µM | GI50 (MDA-MB-231 breast) 5.08 µM and 34.8 µM
> 86.5 µM: TGI (ACHN renal)
18.8 µM and 29.8 µM: TGI (SNB-75 CNS)
28.9 µM and > 65.6 µM: TGI (MDA-MB-231 breast)
48.2 µM and > 100 µM: TGI (MALME-3M melanoma)
35.5 µM and > 87.3 µM: TGI (TK-10 renal)
38.4 µM and > 96.2 µM: TGI (NCI-H23 lung)
